The values that follow are results of earlier work, collected in paper PMC10882020 (Heliyon, 2024).

The conditions of series [1]: orally administered at a dose of 100–150 mg/kg; ref 11 (Zheng et al.).
The subject of the next series is ACE. The note with it: read-out: ACE inhibitory activity IC50; ref 11 (Zheng et al.).

Usually IC50 stands for the concentration that inhibits the measured activity by half. For RGQVIYVL, the antihypertensive effects result in series [1] is “significant antihypertensive effects”. The IC50 in the series with ACE is 38.2 µM.
